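The compound was tested at five concentrations on cells cultured in 96-well plates, with a 48-hour exposure period. At the GI50, growth is halved.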 Calls of active or inactive are those of the source. Cut-off read from the data, not from the text of the source: active = GI50 up to about 1.1 µM and inactive = higher.
Assays:
Assay in all cases: inhibition of tumour cell growth, NCI panel, 48 h
HOP-92 = test system: HOP-92
CAKI-1 = test system: CAKI-1
HT-29 = test system: HT-29
NCI-H460 = test system: NCI-H460
SR = test system: SR
CCRF-CEM = test system: CCRF-CEM
U-251 = test system: U-251
MDA-N = test system: MDA-N
IGROV-1 = test system: IGROV-1
Hs-578T = test system: Hs-578T
ACHN = test system: ACHN
SN12C = test system: SN12C
HL-60 = test system: HL-60
MOLT-4 = test system: MOLT-4
SNB-75 = test system: SNB-75
A549 = test system: A549
MDA-MB-231 = test system: MDA-MB-231
UACC-257 = test system: UACC-257
SK-MEL-2 = test system: SK-MEL-2
OVCAR-3 = test system: OVCAR-3

| SMILES | GI50 (HOP-92) | GI50 (CAKI-1) | GI50 (HT-29) | GI50 (NCI-H460) | GI50 (SR) | GI50 (CCRF-CEM) | GI50 (U-251) | GI50 (MDA-N) | GI50 (IGROV-1) | GI50 (Hs-578T) | GI50 (ACHN) | GI50 (SN12C) | GI50 (HL-60) | GI50 (MOLT-4) | GI50 (SNB-75) | GI50 (A549) | GI50 (MDA-MB-231) | GI50 (UACC-257) | GI50 (SK-MEL-2) | GI50 (OVCAR-3) |
| --- | --- | --- | --- | --- | --- | --- | --- | --- | --- | --- | --- | --- | --- | --- | --- | --- | --- | --- | --- | --- |
| CCOC(=O)c1nc2c(nc1C(=O)OCC)C(=O)c1ccccc1C2=O | 5.36 µM (inactive) | 1 µM (active) | 2.5 µM (inactive) | 1.59 µM (inactive) | 0.263 µM (active) | 0.601 µM (active) | 0.703 µM (active) | 0.248 µM (active) | 2.75 µM (inactive) | 0.236 µM (active) | 0.757 µM (active) | 0.201 µM (active) | 0.427 µM (active) | 1.71 µM (inactive) | 0.479 µM (active) | 0.594 µM (active) | 2.16 µM (inactive) | 0.431 µM (active) | 0.394 µM (active) | 0.37 µM (active) |
| Nc1ccc2c(c1)NC(=O)[C@@H]1CCCN1C2=O | > 100 µM (inactive) | > 100 µM (inactive) | > 100 µM (inactive) | > 100 µM (inactive) | > 100 µM (inactive) | > 100 µM (inactive) | > 100 µM (inactive) | > 100 µM (inactive) | > 100 µM (inactive) | > 100 µM (inactive) | > 100 µM (inactive) | > 100 µM (inactive) | > 100 µM (inactive) | > 100 µM (inactive) | > 100 µM (inactive) | > 100 µM (inactive) | > 100 µM (inactive) | > 100 µM (inactive) | > 100 µM (inactive) | > 100 µM (inactive) |
| C=CCN1CCC2(CC1)NC(=O)c1ccccc1O2 | > 100 µM (inactive) | > 100 µM (inactive) | > 100 µM (inactive) | > 100 µM (inactive) | > 100 µM (inactive) | > 100 µM (inactive) | > 100 µM (inactive) | > 100 µM (inactive) | > 100 µM (inactive) | > 100 µM (inactive) | > 100 µM (inactive) | > 100 µM (inactive) | > 100 µM (inactive) | > 100 µM (inactive) | > 100 µM (inactive) | > 100 µM (inactive) | > 100 µM (inactive) | > 100 µM (inactive) | > 100 µM (inactive) | > 100 µM (inactive) |
| Cc1ccc(O)c(C2=CC3=NNC(=O)C3C(c3cccc(Br)c3)C2)c1 (configuration not stated) | 16.6 µM (inactive) | 23 µM (inactive) | 23.8 µM (inactive) | 22.4 µM (inactive) | 21.2 µM (inactive) | 25.1 µM (inactive) | 21.7 µM (inactive) | 23.7 µM (inactive) | 23.1 µM (inactive) | 27.1 µM (inactive) | 24 µM (inactive) | 19.9 µM (inactive) | 25.4 µM (inactive) | 30.9 µM (inactive) | 22.6 µM (inactive) | 23 µM (inactive) | 20 µM (inactive) | 45.2 µM (inactive) | 27.4 µM (inactive) | 22.3 µM (inactive) |
| CC1(C=O)CC(CCc2ccccc2)NC1Cc1ccc(O)cc1 (configuration not stated) | 15.3 µM (inactive) | 14.8 µM (inactive) | 14.9 µM (inactive) | 16.6 µM (inactive) | 12 µM (inactive) | 20.2 µM (inactive) | 13.7 µM (inactive) | 17.4 µM (inactive) | 14 µM (inactive) | 19.5 µM (inactive) | 15.3 µM (inactive) | 16.9 µM (inactive) | 12.6 µM (inactive) | 14.1 µM (inactive) | 14.7 µM (inactive) | 15.4 µM (inactive) | 13.6 µM (inactive) | 15.1 µM (inactive) | 14.8 µM (inactive) | 17 µM (inactive) |
| c1ccc([P+](Cc2ccc(C[P+](c3ccccc3)(c3ccccc3)c3ccccc3)s2)(c2ccccc2)c2ccccc2)cc1 | > 100 µM (inactive) | > 100 µM (inactive) | > 100 µM (inactive) | > 100 µM (inactive) | > 100 µM (inactive) | > 100 µM (inactive) | > 100 µM (inactive) | > 100 µM (inactive) | > 100 µM (inactive) | > 100 µM (inactive) | > 100 µM (inactive) | > 100 µM (inactive) | > 100 µM (inactive) | > 100 µM (inactive) | > 100 µM (inactive) | > 100 µM (inactive) | > 100 µM (inactive) | > 100 µM (inactive) | > 100 µM (inactive) | > 100 µM (inactive) |
| CCCCCCCCC(=O)NCCN(CCN)C(=O)CCCCCCCC | 14 µM (inactive) | 17.5 µM (inactive) | 3.3 µM (inactive) | 5.86 µM (inactive) | 2.69 µM (inactive) | 2.38 µM (inactive) | 3.37 µM (inactive) | 5.6 µM (inactive) | 7.46 µM (inactive) | 8.38 µM (inactive) | 8.67 µM (inactive) | 10.8 µM (inactive) | 0.65 µM (active) | 3.78 µM (inactive) | 7 µM (inactive) | 13.1 µM (inactive) | 3.31 µM (inactive) | 18.4 µM (inactive) | 15.1 µM (inactive) | 15.2 µM (inactive) |
| COc1ccc(CC2C3=C(CCN2C(=O)C2CCC2)CC2(CC3)OCCO2)cc1O (configuration not stated) | 62.8 µM (inactive) | 36.6 µM (inactive) | 29 µM (inactive) | 27.7 µM (inactive) | 10.5 µM (inactive) | 35.2 µM (inactive) | 39.9 µM (inactive) | 12.1 µM (inactive) | 35.1 µM (inactive) | 30.6 µM (inactive) | 84.1 µM (inactive) | 29.6 µM (inactive) | 18.8 µM (inactive) | 37 µM (inactive) | 15 µM (inactive) | 40.9 µM (inactive) | 40.8 µM (inactive) | 30.5 µM (inactive) | 49.3 µM (inactive) | 18 µM (inactive) |
| COC1(CC[C@H](C)COC2OC(CO)C(O)C(O)C2O)O[C@H]2C[C@H]3[C@@H]4CC=C5C[C@@H](OC6OC(CO)C(OC7OC(C)C(O)C(O)C7O)C(O)C6OC6OC(C)C(O)C(O)C6O)CC[C@]5(C)[C@H]4CC[C@]3(C)[C@H]2[C@@H]1C (some centres not stated) | 1.9 µM (inactive) | 1.48 µM (inactive) | 2.52 µM (inactive) | – | > 100 µM (inactive) | 11.1 µM (inactive) | 2.4 µM (inactive) | 2.88 µM (inactive) | 6.73 µM (inactive) | 1.9 µM (inactive) | 12 µM (inactive) | 7.76 µM (inactive) | 8.55 µM (inactive) | > 23.5 µM (inactive) | 1.86 µM (inactive) | 1.99 µM (inactive) | 5.05 µM (inactive) | 5.51 µM (inactive) | 3.78 µM (inactive) | 6.1 µM (inactive) |
| CCOC(=O)c1ccc2nc3n(c2c1)C(c1c(F)cccc1F)SC3 (configuration not stated) | > 100 µM (inactive) | > 100 µM (inactive) | > 100 µM (inactive) | > 100 µM (inactive) | 49.3 µM (inactive) | > 100 µM (inactive) | > 100 µM (inactive) | > 100 µM (inactive) | 86.7 µM (inactive) | > 100 µM (inactive) | 84.1 µM (inactive) | > 100 µM (inactive) | > 100 µM (inactive) | > 100 µM (inactive) | > 100 µM (inactive) | 79.1 µM (inactive) | > 100 µM (inactive) | > 100 µM (inactive) | > 100 µM (inactive) | 67.1 µM (inactive) |
| Cc1cc(O)c(C(C)C)cc1C1(c2cc(C(C)C)c(O)cc2C)OC(=O)c2ccccc21 | 1.92 µM (inactive) | 3.37 µM (inactive) | 2.39 µM (inactive) | 1.92 µM (inactive) | 1.36 µM (inactive) | – | 1.97 µM (inactive) | 1.67 µM (inactive) | 2.81 µM (inactive) | 2.14 µM (inactive) | 2.62 µM (inactive) | 2.02 µM (inactive) | 0.415 µM (active) | 1.34 µM (inactive) | 2.58 µM (inactive) | 3.05 µM (inactive) | 1.91 µM (inactive) | 1.85 µM (inactive) | 1.82 µM (inactive) | 2.06 µM (inactive) |
| Clc1ccc2c(NCCCCCCNc3ccnc4cc(Cl)ccc34)ccnc2c1 | 2 µM (inactive) | 9.04 µM (inactive) | 1.99 µM (inactive) | 2.25 µM (inactive) | 1.59 µM (inactive) | 2.34 µM (inactive) | 2.45 µM (inactive) | 2.46 µM (inactive) | 4.8 µM (inactive) | 3.27 µM (inactive) | 3.67 µM (inactive) | 2.74 µM (inactive) | 1.98 µM (inactive) | 2.45 µM (inactive) | 2.73 µM (inactive) | 4.69 µM (inactive) | 2.22 µM (inactive) | 7.57 µM (inactive) | 5.97 µM (inactive) | 1.84 µM (inactive) |
| C=C1C(=O)OC2C3OC(C)(CCC(O)C3COC(C)=O)CC(OC(=O)/C(=C/C)COC(C)=O)C12 (configuration not stated) | 0.159 µM (active) | 0.166 µM (active) | 0.154 µM (active) | 0.752 µM (active) | 0.196 µM (active) | 0.0176 µM (active) | 1.22 µM (inactive) | 0.155 µM (active) | 0.738 µM (active) | 0.634 µM (active) | 0.0925 µM (active) | 0.738 µM (active) | 0.0248 µM (active) | 0.0783 µM (active) | 4.66 µM (inactive) | 7.33 µM (inactive) | 0.53 µM (active) | 0.586 µM (active) | 1.13 µM (inactive) | 0.212 µM (active) |
| COc1cc(/C=C2\CCC/C(=C\c3ccc(O)c(OC)c3)C2=O)ccc1O [CYCLOVALONE] | 5.2 µM (inactive) | 2.81 µM (inactive) | 7.6 µM (inactive) | 2.59 µM (inactive) | 1.28 µM (inactive) | 0.525 µM (active) | 2.08 µM (inactive) | 2.42 µM (inactive) | 2.77 µM (inactive) | 4.16 µM (inactive) | 2.06 µM (inactive) | 2.38 µM (inactive) | 1.47 µM (inactive) | 2.83 µM (inactive) | – | 2.73 µM (inactive) | 5.96 µM (inactive) | 5.01 µM (inactive) | 3.56 µM (inactive) | 2.74 µM (inactive) |

From ChEMBL document CHEMBL1201862, “PubChem BioAssay data set” (2004)
